Laboratory results: patent publication USRE39282E1, “Nucleic acid derivatives” (SmithKline Beecham Corporation, priority 1989, dated 2006)
Like-named read-outs stand apart in the source and are kept apart here.

System: HIV-1 isolates
Assay: plaque-reduction assay with HT4-6C cell monolayers, HIV isolates from untreated and treated individuals
Assay type: cell-based
Method: The isolation of HIV-1 was achieved according to methodology reported by Larder et al. PBL samples were prepared by separation on “Ficoll-hypaque” gradients and co-cultivated directly with MT-2 cells (approximately 10^6 of each) after pre-stimulation for 24 to 72 hours with phytohaemag-glutinin (3 μg/ml). In many cases PBLs were cultured after long-term frozen storage. Cultures were maintained in RPMI 1640 supplemented with 10% fetal bovine serum, antibiotics, 2% interleukin-2, and polybrene (2 μg/ml) and expanded by addition of fresh MT-2 cells when a cytopathic effect was observed (between 4 and 14 days). HIV replication was confirmed by the detection of p24 antigen in culture supernatants (p24 antigen detection kit, Abbott, Chicago, Ill.). Virus were prepared from infected cultures and stored in aliquots at −70° C. […] (Larder, B. A., Darby, G., Richman, D., Science, 243, 1731, (1989)).

Cc1cn([C@H]2C[C@H](N=[N+]=[N-])[C@@H](CO)O2)c(=O)[nH]c1=O [zidovudine, 3′-Azido-3′-deoxythymidine]
IC50 (Human immunodeficiency virus 1, read-out: ZIDOVUDINE SENSITIVITY (ID50 μM), HIV isolate A012D, 26 months of therapy, RT 67 Asn, 70 Arg, 215 Phe, 219 Gln): 2 µM | IC50 (Human immunodeficiency virus 1, read-out: ZIDOVUDINE SENSITIVITY (ID50 μM), HIV isolate A018C, 14 months of therapy, RT 67 Asn, 70 Arg, 215 Tyr, 219 Gln): 2.3 µM | IC50 (Human immunodeficiency virus 1, read-out: ZIDOVUDINE SENSITIVITY (ID50 μM), HIV isolate A036C, 11 months of therapy, RT 67 Asp, 70 Lys, 215 Tyr, 219 Lys): 0.6 µM | IC50 (Human immunodeficiency virus 1, read-out: ZIDOVUDINE SENSITIVITY (ID50 μM), HIV isolate A036D, 20 months of therapy, RT 67 Asn, 70 Arg, 215 Tyr, 219 Lys): 5.6 µM | IC50 (Human immunodeficiency virus 1, read-out: ZIDOVUDINE SENSITIVITY (ID50 μM), HIV isolate P022C, 16 months of therapy, RT 67 Asn, 70 Arg, 215 Phe, 219 Gln): 1.4 µM | IC50 (Human immunodeficiency virus 1, read-out: ZIDOVUDINE SENSITIVITY (ID50 μM), HIV isolate P035A, 6 months of therapy, RT 67 Asp, 70 Lys, 215 Tyr, 219 Lys): 0.56 µM | IC50 (Human immunodeficiency virus 1, read-out: ZIDOVUDINE SENSITIVITY (Mean ID50, μM), HIV isolate A012D, Table 2): 2.56 µM | IC50 (Human immunodeficiency virus 1, read-out: Zidovudine Sensitivity (ID50 μM), HIV isolate A001A, 0 months of therapy, RT sequence wild type, Table 3): 0.03 µM | IC50 (Human immunodeficiency virus 1, read-out: Zidovudine Sensitivity (ID50 μM), HIV isolate A001B, 12 months of therapy, RT sequence R70 and N67 R70 Q219, Table 3): 0.11 µM | IC50 (Human immunodeficiency virus 1, read-out: Zidovudine Sensitivity (ID50 μM), HIV isolate A012D, 26 months of therapy, RT N67 R70 F215 Q219, Table 3): 2 µM | IC50 (Human immunodeficiency virus 1, read-out: Zidovudine Sensitivity (ID50 μM), HIV isolate A018C, 14 months of therapy, RT N67 R70 Y215 Q219, Table 3): 4 µM | IC50 (Human immunodeficiency virus 1, read-out: Zidovudine Sensitivity (ID50 μM), HIV isolate A025A, 24 months of therapy, RT R70, Table 3): 0.11 µM | IC50 (Human immunodeficiency virus 1, read-out: Zidovudine Sensitivity (ID50 μM), HIV isolate A036C, 11 months of therapy, RT Y215, Table 3): 0.67 µM | IC50 (Human immunodeficiency virus 1, read-out: Zidovudine Sensitivity (ID50 μM), HIV isolate A036D, 20 months of therapy, RT N67 R70 Y215, Table 3): 5.6 µM
